The results in this text go back to ChEMBL document CHEMBL2074218, “Effect of P-glycoprotein modulator, cyclosporin A, on the gastrointestinal excretion of irinotecan and its metabolite SN-38 in rats” (Pharm Res, 2003).

For the series, the target named is ATP-dependent translocase ABCB1 (Mus musculus, UniProt P21447). The experiment in a line: TP_TRANSPORTER: transepithelial transport (basal to apical) in Mdr1a-expressing LLC-PK1 cells. As to conditions: pig. The format is functional, cell-based.
ATP-dependent translocase ABCB1, sequence (P21447 whole entry): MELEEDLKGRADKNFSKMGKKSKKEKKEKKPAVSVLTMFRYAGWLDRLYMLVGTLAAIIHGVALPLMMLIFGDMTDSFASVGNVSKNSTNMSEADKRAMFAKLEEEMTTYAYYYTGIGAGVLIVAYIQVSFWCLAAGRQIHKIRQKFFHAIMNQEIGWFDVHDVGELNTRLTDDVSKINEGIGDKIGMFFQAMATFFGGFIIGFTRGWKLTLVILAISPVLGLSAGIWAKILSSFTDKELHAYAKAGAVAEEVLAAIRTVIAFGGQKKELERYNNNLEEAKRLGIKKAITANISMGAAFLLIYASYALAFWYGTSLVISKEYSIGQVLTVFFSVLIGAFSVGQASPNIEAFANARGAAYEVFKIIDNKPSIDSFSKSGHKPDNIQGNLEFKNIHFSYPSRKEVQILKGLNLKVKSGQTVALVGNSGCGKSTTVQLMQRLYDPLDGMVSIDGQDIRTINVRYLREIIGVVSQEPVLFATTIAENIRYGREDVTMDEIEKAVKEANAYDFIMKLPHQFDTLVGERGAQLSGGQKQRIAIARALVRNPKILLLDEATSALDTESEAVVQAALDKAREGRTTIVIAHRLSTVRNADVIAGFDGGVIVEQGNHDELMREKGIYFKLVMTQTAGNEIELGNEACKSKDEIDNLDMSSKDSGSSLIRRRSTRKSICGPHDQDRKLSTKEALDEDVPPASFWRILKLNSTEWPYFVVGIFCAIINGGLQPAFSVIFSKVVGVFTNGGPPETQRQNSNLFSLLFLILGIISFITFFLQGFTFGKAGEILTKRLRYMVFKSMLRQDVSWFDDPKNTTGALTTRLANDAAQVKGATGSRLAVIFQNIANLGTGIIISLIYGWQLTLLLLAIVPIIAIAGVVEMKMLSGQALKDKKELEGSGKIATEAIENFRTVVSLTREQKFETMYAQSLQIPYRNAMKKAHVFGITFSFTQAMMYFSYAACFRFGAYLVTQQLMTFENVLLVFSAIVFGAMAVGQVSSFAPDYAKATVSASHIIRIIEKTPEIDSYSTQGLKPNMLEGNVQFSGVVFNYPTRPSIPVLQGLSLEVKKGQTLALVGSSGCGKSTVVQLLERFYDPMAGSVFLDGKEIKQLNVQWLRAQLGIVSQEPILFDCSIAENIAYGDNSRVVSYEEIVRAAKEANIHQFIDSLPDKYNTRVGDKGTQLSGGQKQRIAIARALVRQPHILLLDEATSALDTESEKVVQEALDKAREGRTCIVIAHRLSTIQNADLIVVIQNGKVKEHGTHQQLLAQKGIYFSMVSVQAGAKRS

For the molecule `CCc1c2c(nc3ccc(O)cc13)-c1cc([C@@](O)(CC)C(=O)O)c(CO)c(=O)n1C2`, the Activity entry was “substrate [+]”. With `CCc1c2c(nc3ccc(OC[C@@H]4O[C@H](C(=O)O)[C@@H](O)[C@H](O)[C@H]4O)cc13)-c1cc3c(c(=O)n1C2)COC(=O)[C@]3(O)CC`, the Activity result is “substrate [+]”. The result for `CCc1c2c(nc3ccc(OC(=O)N4CCC(N5CCCCC5)CC4)cc13)-c1cc3c(c(=O)n1C2)COC(=O)[C@]3(O)CC` [IRINOTECAN] reads “substrate [+]”. As for `CCc1c2c(nc3ccc(OC(=O)N4CCC(N5CCCCC5)CC4)cc13)-c1cc([C@@](O)(CC)C(=O)O)c(CO)c(=O)n1C2`, the entry is “substrate [+]”.
